Results on four compounds are retold here after ChEMBL document CHEMBL2203136, “Synthesis, characterization, biological evaluation and QSAR studies of 11-p-substituted phenyl-12-phenyl-11a,12-dihydro-11H-indeno[2,1-c][1,5]benzothiazepines as potential antimicrobial agents” (Eur J Med Chem, 2012).

≈ marks a conversion by molar mass, not a printed value.

The test system of series [1] is Pseudomonas aeruginosa. Briefly: Antibacterial activity against Pseudomonas aeruginosa MTCC 7952 after 24 hrs by serial dilution method. The series is classed as functional. To be noted: for MIC: Pseudomonas aeruginosa, MTCC 7952, 24 h.
Series [2] concerns Staphylococcus aureus. In words: Antibacterial activity against Staphylococcus aureus MTCC 7443 after 24 hrs by serial dilution method. The class given is functional. To be noted: for MIC: Staphylococcus aureus, MTCC 7443, 24 h.
Series [3] is described as follows: Octanol-water partition coefficient, log P of the compound. The class given is physicochemical.
For series [4], the system named is Bacillus subtilis.
The subject of series [5] is Aspergillus fumigatus. In words: Antifungal activity against Aspergillus fumigatus MTCC 2550 after 72 hrs by serial dilution method relative to 11,12-Diphenyl-11a,12-dihydro-11H-indeno[2,1-c][1,5]benzothiazepine. The class given is functional.
The test system of series [6] is Staphylococcus aureus. Briefly: Antibacterial activity against Staphylococcus aureus MTCC 7443 after 24 hrs by serial dilution method relative to 11,12-Diphenyl-11a,12-dihydro-11H-indeno[2,1-c][1,5]benzothiazepine. The series is classed as functional.
Series [7] relates to Candida albicans. Briefly: Antifungal activity against Candida albicans MTCC 183 after 72 hrs by serial dilution method relative to 11,12-Diphenyl-11a,12-dihydro-11H-indeno[2,1-c][1,5]benzothiazepine. The class given is functional.
Series [8] concerns Aspergillus fumigatus. Briefly: Antifungal activity against Aspergillus fumigatus MTCC 2550 after 72 hrs by serial dilution method. The class given is functional. The following applies: for MIC: Aspergillus fumigatus, MTCC 2550, 72 h.
Series [9] has as its system Candida albicans. Briefly: Antifungal activity against Candida albicans MTCC 183 after 72 hrs by serial dilution method. To be noted: for MIC: Candida albicans, MTCC 183, 72 h. The class given is functional.
Series [10] deals with Pseudomonas aeruginosa. Briefly: Antibacterial activity against Pseudomonas aeruginosa MTCC 7952 after 24 hrs by serial dilution method relative to 11,12-Diphenyl-11a,12-dihydro-11H-indeno[2,1-c][1,5]benzothiazepine. The series is classed as functional.
For series [11], the system named is Bacillus subtilis. Briefly: microbe, parasite or virus in culture. To be noted: MTCC 441, 24 h.
Series [12] concerns Escherichia coli. In words: Antibacterial activity against Escherichia coli MTCC 42 after 24 hrs by serial dilution method relative to 11,12-Diphenyl-11a,12-dihydro-11H-indeno[2,1-c][1,5]benzothiazepine. The series is classed as functional.
In series [13] the test system is Bacillus subtilis. Briefly: Antibacterial activity against Bacillus subtilis MTCC 441 after 24 hrs by serial dilution method relative to 11,12-Diphenyl-11a,12-dihydro-11H-indeno[2,1-c][1,5]benzothiazepine. The class given is functional.
Series [14] deals with Escherichia coli. Briefly: Antibacterial activity against Escherichia coli MTCC 42 after 24 hrs by serial dilution method. The class given is functional. The following applies: for MIC: Escherichia coli, MTCC 42, 24 h.

Turning to `COc1ccc(C2Sc3cc(Cl)ccc3N=C3c4ccccc4C(c4ccccc4)C32)cc1` (stereo unspecified), the “-logMIC” value worked out at 2.18 in series [1]; 1.88 in series [2]; 1.27 in [4]; 1.57 in [8]; 1.88 in series [9]; 1.57 in series [14]. Besides, the MIC in [1] stood at 6.6 µM (≈ 3.09 µg/mL); in series [2], 13.3 µM (≈ 6.22 µg/mL); in series [8], 26.7 µM (≈ 12.5 µg/mL); in series [9], 13.3 µM (≈ 6.22 µg/mL); in [11] it was 53.4 µM (≈ 25 µg/mL); in series [14] it was 26.7 µM (≈ 12.5 µg/mL). For the same compound, the logP in series [3] worked out at 7.23. In addition, the Activity in [5] is recorded as 78.45%; in [6] it was 78.51%; in [7] it was 78.51%; in series [10] it was 89.33%; in series [12] it was 78.45%; in [13] it was 13.73%.

Turning to `COc1ccc2c(c1)SC(c1ccc(Cl)cc1)C1C(=N2)c2ccccc2C1c1ccccc1` (stereo unspecified), the “-logMIC” value in [1] worked out at 2.16; in series [2] it was 1.27; in series [4], 1.57; in [8], 1.57; in series [9], 2.16; in series [14] it was 1.57. Also, the MIC in series [1] came out at 6.9 µM (≈ 3.23 µg/mL); in [2] it was 53.4 µM (≈ 25 µg/mL); in series [8], 26.7 µM (≈ 12.5 µg/mL); in series [9], 6.9 µM (≈ 3.23 µg/mL); in series [11], 26.7 µM (≈ 12.5 µg/mL); in series [14], 26.7 µM (≈ 12.5 µg/mL). The logP in series [3] turned out to be 7.23. Further, the Activity was found to be 78.45% in [5]; 13.73% in [6]; 88.85% in series [7]; 88.85% in [10]; 78.45% in series [12]; 56.86% in series [13].

Take `Clc1ccc(C2Sc3ccccc3N=C3c4ccccc4C(c4ccccc4)C32)cc1` (stereo unspecified): the “-logMIC” value in [1] stood at 0.94; in series [2] it was 1.55; in series [4], 2.15; in series [8], 1.24; in [9] it was 0.94; in [14] it was 1.24. The MIC in [1] came to 114 µM (≈ 50 µg/mL); in series [2], 28.5 µM (≈ 12.5 µg/mL); in series [8], 57 µM (≈ 25 µg/mL); in series [9], 114 µM (≈ 50 µg/mL); in series [11] it was 7.1 µM (≈ 3.11 µg/mL); in series [14] it was 57 µM (≈ 25 µg/mL). The same compound came in with a logP in [3] of 7.48. Also, the Activity is recorded as 53.99% in [5]; 53.95% in series [6]; -84.32% in [7]; -84.32% in series [10]; 53.99% in [12]; 88.52% in series [13].

Consider `COc1ccc(C2Sc3cc(OC)ccc3N=C3c4ccccc4C(c4ccccc4)C32)cc1` (stereo unspecified), for which the “-logMIC” value stood at 0.97 in [1]; 2.17 in series [2]; 1.27 in series [4]; 1.87 in series [8]; 1.87 in series [9]; 1.57 in [14]. Also, the MIC in series [1] amounted to 108 µM (≈ 50 µg/mL); in series [2], 6.7 µM (≈ 3.11 µg/mL); in series [8], 13.4 µM (≈ 6.21 µg/mL); in series [9], 13.4 µM (≈ 6.21 µg/mL); in series [11] it was 53.9 µM (≈ 25 µg/mL); in [14], 26.9 µM (≈ 12.5 µg/mL). In series [3], this compound came in with a logP of 6.46. Also, the Activity in series [5] is reported as 89.18%; in series [6], 89.17%; in series [7] it was 78.35%; in series [10], -74.15%; in series [12], 78.28%; in series [13] it was 12.92%.
